The source of these data is patent US11524951B2, “2-(2,4,5-substituted-anilino)pyrimidine compounds” (AstraZeneca AB, priority 2011, dated 2022).

As usually defined, the IC50 is the point on the concentration scale where inhibition reaches its midpoint.

Common to all, as to type: cell-based
One experiment has as its target T1, Wild-type EGFR (Homo sapiens, UniProt P00533).
T1 construct: Assays to measure cellular phosphorylation of endogenous p-EGFR in cell lysates; endogenous in cells; host or cells: LoVo (human colon cell line)
In words: Wild-type EGFR cellular phosphorylation assay. Particulars: LoVo human colon cells; endogenous p-EGFR in cell lysates by ELISA; 2 h with compound, then stimulated 100 ng/ml for 10 minutes; read-out: Assay 3 (IC50). The protocol: Assay 3: Wild-Type EGFR Cellular Phosphorylation Assay
The human colon cell line LoVo were obtained from the American type Culture Collection. […] Cells were grown in a humidified incubator at 37° C. with 5% CO2. Assays to measure cellular phosphorylation of endogenous p-EGFR in cell lysates were carried out according to the protocol described in the R&D Systems DuoSet IC Human Phospho-EGF R ELISA (R&D Systems catalogue number #DYC1095). 40 μL of cells were seeded (15000 cells/well) in growth medium in Corning black, clear-bottomed 384-well plates and incubated at 37° C. with 5% CO2 overnight. […] Plates were incubated for a further 2 h then stimulated with 100 ng/ml for 10 minutes and following aspiration of medium, 40 μL 1× lysis buffer was added to each well. Greiner black high bind 384-well plates were coated with capture antibody and then blocked with 3% BSA. […] Following aspiration and washing of the plates with PBS, 20 μL of detection antibody were added and incubated for 2 hours. […] The data obtained with each compound was exported into a suitable software package (such as Origin) to perform curve fitting analysis.
(In an ELISA, binding on a coated surface is turned into a signal by an enzyme label.)

For a further experiment, the target named is T2, L858R/T790M EGFR (Homo sapiens, UniProt P00533, L858R/T790M).
T2 construct: Assays to measure cellular phosphorylation of endogenous p-EGFR in cell lysates; endogenous in cells; host or cells: NCI-H1975 (human lung cell line)
T2 sequence (P00533 25-1210 T790M/L858R): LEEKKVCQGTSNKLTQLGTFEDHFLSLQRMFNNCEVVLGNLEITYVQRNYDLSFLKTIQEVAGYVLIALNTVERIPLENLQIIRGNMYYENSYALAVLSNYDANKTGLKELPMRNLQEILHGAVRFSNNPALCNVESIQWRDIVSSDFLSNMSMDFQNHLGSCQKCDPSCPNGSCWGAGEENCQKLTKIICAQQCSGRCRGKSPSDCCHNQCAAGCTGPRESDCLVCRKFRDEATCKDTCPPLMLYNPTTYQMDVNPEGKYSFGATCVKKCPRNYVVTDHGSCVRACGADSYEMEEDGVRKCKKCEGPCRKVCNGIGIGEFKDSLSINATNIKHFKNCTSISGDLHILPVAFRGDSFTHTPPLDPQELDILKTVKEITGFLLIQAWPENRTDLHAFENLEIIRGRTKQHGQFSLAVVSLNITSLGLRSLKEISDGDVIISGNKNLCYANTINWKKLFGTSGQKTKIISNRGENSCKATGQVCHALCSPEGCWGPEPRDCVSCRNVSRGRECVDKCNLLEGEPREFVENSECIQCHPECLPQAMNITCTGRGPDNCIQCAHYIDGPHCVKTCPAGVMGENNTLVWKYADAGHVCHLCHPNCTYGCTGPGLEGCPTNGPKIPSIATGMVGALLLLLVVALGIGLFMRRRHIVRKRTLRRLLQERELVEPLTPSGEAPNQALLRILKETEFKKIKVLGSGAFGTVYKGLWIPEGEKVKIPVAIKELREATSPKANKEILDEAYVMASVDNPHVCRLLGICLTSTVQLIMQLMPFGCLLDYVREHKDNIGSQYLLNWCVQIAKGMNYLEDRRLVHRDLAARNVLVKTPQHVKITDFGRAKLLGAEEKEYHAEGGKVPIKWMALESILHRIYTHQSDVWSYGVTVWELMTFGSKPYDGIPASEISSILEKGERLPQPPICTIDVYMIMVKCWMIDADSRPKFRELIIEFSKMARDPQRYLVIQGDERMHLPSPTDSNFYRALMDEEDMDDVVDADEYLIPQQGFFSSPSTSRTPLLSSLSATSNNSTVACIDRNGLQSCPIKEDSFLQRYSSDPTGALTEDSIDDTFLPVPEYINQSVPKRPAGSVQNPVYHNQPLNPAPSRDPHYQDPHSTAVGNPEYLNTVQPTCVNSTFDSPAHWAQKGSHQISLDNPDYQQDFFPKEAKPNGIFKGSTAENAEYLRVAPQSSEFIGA
In words: L858R/T790M EGFR (double mutant) cellular phosphorylation assay. Particulars: NCI-H1975 human lung cells; endogenous p-EGFR in cell lysates by ELISA; 2 h with compound. How it is done: Assay 2: L858R/T790M EGFR (Double Mutant) Cellular Phosphorylation Assay
The human lung cell lines NCI-H1975 were obtained from the American type Culture Collection. […] Cells were grown in a humidified incubator at 37° C. with 5% CO2.
Assays to measure cellular phosphorylation of endogenous p-EGFR in cell lysates were carried out according to the protocol described in the R&D Systems DuoSet IC Human Phospho-EGF R ELISA (R&D Systems catalogue number #DYC1095).
40 μL of cells were seeded (10000 cells/well) in growth medium in Corning black, clear-bottomed 384-well plates and incubated at 37° C. with 5% CO2 overnight. […] Plates were incubated for a further 2 h and following aspiration of medium, 40 μL 1× lysis buffer was added to each well. Greiner black high bind 384-well plates were coated with capture antibody and then blocked with 3% BSA. Following removal of block, 15 μL of lysate were transferred to the Greiner black high bind 384-well plates and incubated for 2 hours. Following aspiration and washing of the plates with PBS, 20 μL of detection antibody were added and incubated for 2 hours. […] 20 μL QuantaBlu stop solution were added to plates and fluorescence read on an Envision plate reader using
The data obtained with each compound was exported into a suitable software package (such as Origin) to perform curve fitting analysis.

In another experiment the target is T3, Exon19 deletion EGFR (Homo sapiens, UniProt P00533, DEL746-750).
T3 construct: Assays to measure cellular phosphorylation of endogenous p-EGFR in cell lysates; endogenous in cells; host or cells: PC9 (human lung cell line)
T3 sequence (P00533 with tags, fused parts or gaps DEL746-750): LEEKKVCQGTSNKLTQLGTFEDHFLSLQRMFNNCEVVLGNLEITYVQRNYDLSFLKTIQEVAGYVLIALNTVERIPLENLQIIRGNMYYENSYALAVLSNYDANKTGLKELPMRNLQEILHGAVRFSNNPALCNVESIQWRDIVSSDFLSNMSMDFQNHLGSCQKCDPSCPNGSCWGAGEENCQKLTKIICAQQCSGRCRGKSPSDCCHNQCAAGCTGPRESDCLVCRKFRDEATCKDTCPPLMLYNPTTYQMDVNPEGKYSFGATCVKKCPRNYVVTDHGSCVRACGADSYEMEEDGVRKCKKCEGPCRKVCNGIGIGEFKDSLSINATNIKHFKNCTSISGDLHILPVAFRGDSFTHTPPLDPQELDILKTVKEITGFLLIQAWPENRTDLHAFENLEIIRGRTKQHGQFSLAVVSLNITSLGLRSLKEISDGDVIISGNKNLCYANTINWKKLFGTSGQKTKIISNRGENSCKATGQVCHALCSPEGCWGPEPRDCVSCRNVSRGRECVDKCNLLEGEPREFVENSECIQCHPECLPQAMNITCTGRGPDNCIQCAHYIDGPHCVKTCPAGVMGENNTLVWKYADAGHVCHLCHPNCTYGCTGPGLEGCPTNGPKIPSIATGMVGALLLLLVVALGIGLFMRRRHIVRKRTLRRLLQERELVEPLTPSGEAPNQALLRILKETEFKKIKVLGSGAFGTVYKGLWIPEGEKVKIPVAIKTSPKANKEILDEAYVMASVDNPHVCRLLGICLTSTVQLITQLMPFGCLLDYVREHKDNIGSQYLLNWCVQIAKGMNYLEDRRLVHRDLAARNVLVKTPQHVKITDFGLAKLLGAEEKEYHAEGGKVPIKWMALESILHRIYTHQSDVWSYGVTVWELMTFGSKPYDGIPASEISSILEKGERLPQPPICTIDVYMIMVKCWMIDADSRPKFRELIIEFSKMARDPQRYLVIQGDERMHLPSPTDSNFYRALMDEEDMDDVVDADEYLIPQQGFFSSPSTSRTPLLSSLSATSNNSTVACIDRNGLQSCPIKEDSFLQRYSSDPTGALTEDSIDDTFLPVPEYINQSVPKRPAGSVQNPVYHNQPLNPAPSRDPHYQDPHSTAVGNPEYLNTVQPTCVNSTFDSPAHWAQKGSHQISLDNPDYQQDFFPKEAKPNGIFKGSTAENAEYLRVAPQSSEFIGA
The experiment can be described thus: Exon19 deletion EGFR (activating single mutant) cellular phosphorylation assay. The conditions noted are these: PC9 human lung cells (Exon 19 deletion EGFR); endogenous p-EGFR in cell lysates by ELISA; 2 h with compound; read-out: Assay 1 (IC50). How it is done:
Assay 1: Exon19 Deletion EGFR (Activating Single Mutant) Cellular Phosphorylation Assay
The human lung cell line PC9 (Exon 19 deletion EGFR) were obtained from the American type Culture Collection. […] Cells were grown in a humidified incubator at 37° C. with 5% CO2. Assays to measure cellular phosphorylation of endogenous p-EGFR in cell lysates were carried out according to the protocol described in the R&D Systems DuoSet IC Human Phospho-EGF R ELISA (R&D Systems catalogue number #DYC1095). 40 μL of cells were seeded (10000 cells/well) in growth medium in Corning black, clear-bottomed 384-well plates and incubated at 37° C. with 5% CO2 overnight. […] Plates were incubated for a further 2 h, then following aspiration of medium, 40 μL 1× lysis buffer was added to each well. Greiner black high bind 384-well plates were coated with capture antibody and then blocked with 3% BSA. Following removal of block, […], of lysate were transferred to the Greiner black high bind 384-well plates and incubated for 2 hours. Following aspiration and washing of the plates with PBS, 20 μL of detection antibody were added and incubated for 2 hours. […] The data obtained with each compound was exported into a suitable software package (such as Origin) to perform curve fitting analysis.

T1 sequence (P00533 25-1210): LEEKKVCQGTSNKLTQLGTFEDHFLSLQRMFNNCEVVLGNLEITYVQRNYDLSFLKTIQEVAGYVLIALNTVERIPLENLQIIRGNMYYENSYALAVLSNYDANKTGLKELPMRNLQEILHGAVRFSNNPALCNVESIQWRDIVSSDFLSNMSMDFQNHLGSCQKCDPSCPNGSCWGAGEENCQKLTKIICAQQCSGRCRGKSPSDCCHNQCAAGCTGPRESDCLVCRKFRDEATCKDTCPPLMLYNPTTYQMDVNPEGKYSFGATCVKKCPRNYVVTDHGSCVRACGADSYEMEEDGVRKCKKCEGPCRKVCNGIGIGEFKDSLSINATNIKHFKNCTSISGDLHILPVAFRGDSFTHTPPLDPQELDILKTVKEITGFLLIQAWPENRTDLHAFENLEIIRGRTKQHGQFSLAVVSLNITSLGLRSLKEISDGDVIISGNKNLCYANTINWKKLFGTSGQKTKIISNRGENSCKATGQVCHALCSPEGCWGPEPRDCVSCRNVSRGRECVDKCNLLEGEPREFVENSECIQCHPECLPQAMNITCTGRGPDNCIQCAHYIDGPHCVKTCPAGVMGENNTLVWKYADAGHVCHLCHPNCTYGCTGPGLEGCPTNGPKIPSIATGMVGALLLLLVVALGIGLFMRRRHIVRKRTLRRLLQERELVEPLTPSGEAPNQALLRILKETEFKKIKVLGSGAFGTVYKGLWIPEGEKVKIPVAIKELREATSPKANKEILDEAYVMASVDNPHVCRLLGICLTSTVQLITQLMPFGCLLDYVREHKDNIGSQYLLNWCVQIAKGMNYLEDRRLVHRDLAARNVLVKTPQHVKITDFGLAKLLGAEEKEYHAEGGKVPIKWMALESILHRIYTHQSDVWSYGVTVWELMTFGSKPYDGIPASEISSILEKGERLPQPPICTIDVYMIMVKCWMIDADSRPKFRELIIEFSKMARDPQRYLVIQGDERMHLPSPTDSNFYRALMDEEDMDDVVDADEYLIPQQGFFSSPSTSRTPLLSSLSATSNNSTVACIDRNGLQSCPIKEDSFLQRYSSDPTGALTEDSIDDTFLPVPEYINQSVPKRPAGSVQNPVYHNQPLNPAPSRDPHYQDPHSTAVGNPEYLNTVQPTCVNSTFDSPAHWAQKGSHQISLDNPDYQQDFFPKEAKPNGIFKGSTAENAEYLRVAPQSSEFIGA

Turning to `C=CC(=O)Nc1cc(Nc2ncc(C)c(-c3cnn4ccccc34)n2)c(OC)cc1C1=CCN(C)CC1` [Example 1, N-{4-Methoxy-2-[1-methyl-3,6-dihydro-2H-pyridin-4-yl]-5-[(5-methyl-4-pyrazolo[1,5-a]pyridin-3-ylpyrimidin-2-yl)amino]phenyl}prop-2-enamide], the IC50 at Wild-type EGFR was determined as 474 nM; on L858R/T790M EGFR it was 4.96 nM; at Exon19 deletion EGFR it was 7.61 nM.

Turning to `C=CC(=O)Nc1cc(Nc2ncc(Cl)c(-c3c[nH]c4ccccc34)n2)c(OC)cc1C1=CCN(C)CC1` [Example 2, N-(5-{[5-Chloro-4-(1H-indol-3-yl)pyrimidin-2-yl]amino}-4-methoxy-2-[1-methyl-3,6-dihydro-2H-pyridin-4-yl]phenyl)prop-2-enamide], the IC50 at Wild-type EGFR worked out at 41.2 nM; on L858R/T790M EGFR it was 1.5 nM; at Exon19 deletion EGFR, 1.29 nM.

In the case of `C=CC(=O)Nc1cc(Nc2ncc(C)c(-c3c[nH]c4ccccc34)n2)c(OC)cc1N1CCN(C)CC1` [Example 3, N-(5-{[4-(1H-Indol-3-yl)-5-methylpyrimidin-2-yl]amino}-4-methoxy-2-[4-methylpiperazin-1-yl]phenyl)prop-2-enamide], the IC50 was 522 nM on Wild-type EGFR, 15.5 nM at L858R/T790M EGFR and 10.5 nM on Exon19 deletion EGFR.

Regarding `C=CC(=O)Nc1cc(Nc2ncc(Cl)c(-c3cnn4ccccc34)n2)c(OC)cc1N1CC[C@@H](N(C)C)C1` [Example 4, N-{5-[(5-Chloro-4-pyrazolo[1,5-a]pyridin-3-ylpyrimidin-2-yl)amino]-2-[(3R)-3-dimethylaminopyrrolidin-1-yl]-4-methoxyphenyl}prop-2-enamide], the IC50 on Wild-type EGFR stood at 510 nM; at L858R/T790M EGFR it was 1.6 nM; at Exon19 deletion EGFR, 12.7 nM.

Turning to `C=CC(=O)Nc1cc(Nc2ncc(Cl)c(-c3cnn4ccccc34)n2)c(OC)cc1N(C)CCN(C)C` [Example 6, N-{5-[(5-Chloro-4-pyrazolo[1,5-a]pyridin-3-ylpyrimidin-2-yl)amino]-2-[2-dimethylaminoethyl-methylamino]-4-methoxyphenyl}prop-2-enamide], the values for the IC50 at Wild-type EGFR, at L858R/T790M EGFR and on Exon19 deletion EGFR were 196 nM, 0.669 nM and 2.18 nM, respectively.

In the case of `C=CC(=O)Nc1cc(Nc2ncc(Cl)c(-c3cnn4ccccc34)n2)c(OC)cc1N1CC[C@@H]2CN(C)C[C@@H]21` [Example 7, N-{2-[(3aR,6aR)-5-Methyl-2,3,3a,4,6,6a-hexahydropyrrolo[3,2-c]pyrrol-1-yl]-5-[(5-chloro-4-pyrazolo[1,5-a]pyridin-3-ylpyrimidin-2-yl)amino]-4-methoxyphenyl}prop-2-enamide], the results for the IC50 at Wild-type EGFR, at L858R/T790M EGFR and on Exon19 deletion EGFR were 161 nM, 0.682 nM and 3.26 nM, respectively.

As to `C=CC(=O)Nc1cc(Nc2ncc(Cl)c(-c3cnn4ccccc34)n2)c(OC)cc1N1CC2(CCCN2C)C1` [Example 8, N-{5-[(5-Chloro-4-pyrazolo[1,5-a]pyridin-3-ylpyrimidin-2-yl)amino]-4-methoxy-2-[5-methyl-2,5-diazaspiro[3.4]octan-2-yl]phenyl}prop-2-enamide], the IC50 is 1170 nM on Wild-type EGFR, 5.48 nM on L858R/T790M EGFR and 22.4 nM at Exon19 deletion EGFR.

As to `C=CC(=O)Nc1cc(Nc2ncc(Cl)c(-c3cnn4ccccc34)n2)c(OC)cc1C1=CCN(C)CC1` [Example 9, N-{5-[(5-Chloro-4-pyrazolo[1,5-a]pyridin-3-ylpyrimidin-2-yl)amino]-4-methoxy-2-[1-methyl-3,6-dihydro-2H-pyridin-4-yl]phenyl}prop-2-enamide], the figures for the IC50 at Wild-type EGFR, at L858R/T790M EGFR and at Exon19 deletion EGFR were 874 nM, 2.82 nM and 9.96 nM, respectively.

With `C=CC(=O)Nc1cc(Nc2ncc(Cl)c(-c3cnn4ccccc34)n2)c(OC)cc1N1CCN(CC(=O)N(C)C)CC1` [Example 10, N-{5-[(5-Chloro-4-pyrazolo[1,5-a]pyridin-3-ylpyrimidin-2-yl)amino]-2-[4-(2-dimethylamino-2-oxoethyl)piperazin-1-yl]-4-methoxyphenyl}prop-2-enamide], the values for the IC50 at Wild-type EGFR, at L858R/T790M EGFR and on Exon19 deletion EGFR were 8430 nM, 40 nM and 73.8 nM, respectively.

Regarding `C=CC(=O)Nc1cc(Nc2ncc(Cl)c(-c3cnn4ccccc34)n2)c(OC)cc1N1CCN(C(=O)[C@H](C)N)CC1` [Example 11, (S)—N-{2-[4-(2-Aminopropanoyl)piperazin-1-yl]-5-[(5-chloro-4-pyrazolo[1,5-a]pyridin-3-ylpyrimidin-2-yl)amino]-4-methoxyphenyl}prop-2-enamide], the IC50 on Wild-type EGFR amounted to 1600 nM; at L858R/T790M EGFR, 18.7 nM; on Exon19 deletion EGFR, 28.5 nM.

Consider `C=CC(=O)Nc1cc(Nc2ncc(Cl)c(-c3cnn4ccccc34)n2)c(OC)cc1N1CC[C@H](N(C)C)C1` [Example 12, N-{5-[(5-Chloro-4-pyrazolo[1,5-a]pyridin-3-ylpyrimidin-2-yl)amino]-2-[(3S)-3-dimethylaminopyrrolidin-1-yl]-4-methoxyphenyl}prop-2-enamide], for which the IC50 on Wild-type EGFR came out at 1390 nM; on L858R/T790M EGFR, 5.82 nM; at Exon19 deletion EGFR, 36.1 nM.

For the compound `C=CC(=O)Nc1cc(Nc2ncc(C#N)c(-c3cnn4ccccc34)n2)c(OC)cc1N1CCN(C)CC1` [Example 14, N-{5-[(5-Cyano-4-pyrazolo[1,5-a]pyridin-3-ylpyrimidin-2-yl)amino]-4-methoxy-2-[4-methylpiperazin-1-yl]phenyl}prop-2-enamide], the IC50 at Wild-type EGFR came out at 12500 nM; on L858R/T790M EGFR, 19.1 nM; at Exon19 deletion EGFR it was 53.3 nM.

Take `C=CC(=O)Nc1cc(Nc2nccc(-c3c[nH]c4ccccc34)n2)c(OC)cc1N1CCN(C)CC1` [Example 15, N-(5-{[4-(1H-Indol-3-yl)pyrimidin-2-yl]amino}-4-methoxy-2-{4-methylpiperazin-1-yl}phenyl)prop-2-enamide]: the IC50 on Wild-type EGFR was 1070 nM; on L858R/T790M EGFR it was 55.2 nM; at Exon19 deletion EGFR, 14 nM.

As to `C=CC(=O)Nc1cc(Nc2nccc(-c3cnn4ccccc34)n2)c(OC)cc1N1CCN(C)CC1` [Example 16, N-[4-Methoxy-2-(4-methylpiperazin-1-yl)-5-[(4-pyrazolo[1,5-a]pyridin-3-ylpyrimidin-2-yl)amino]phenyl]prop-2-enamide], the IC50 at Wild-type EGFR was over 18900 nM; at L858R/T790M EGFR, 70.5 nM; at Exon19 deletion EGFR, 144 nM.

As for `C=CC(=O)Nc1cc(Nc2ncc(Cl)c(-c3c[nH]c4ccccc34)n2)c(OC)cc1N1CCN(C)CC1` [Example 17, N-(5-{[5-Chloro-4-(1H-indol-3-yl)pyrimidin-2-yl]amino}-4-methoxy-2-{4-methylpiperazin-1-yl}phenyl)prop-2-enamide], the results for the IC50 on Wild-type EGFR, on L858R/T790M EGFR and on Exon19 deletion EGFR were 772 nM, 5.64 nM and 23.4 nM, respectively.

`C=CC(=O)Nc1cc(Nc2ncc(C)c(-c3cn(C)c4ccccc34)n2)c(OC)cc1N1CCN(C)CC1` [Example 18, N-(4-Methoxy-5-{[5-methyl-4-(1-methylindol-3-yl)pyrimidin-2-yl]amino}-2-{4-methylpiperazin-1-yl}phenyl)prop-2-enamide]: the IC50 at Wild-type EGFR stood at 2700 nM; on L858R/T790M EGFR, 31.4 nM; at Exon19 deletion EGFR it was 66.4 nM.
